Assay type in all cases: cell-based, Human
Experiment [1] concerns RPMI 8322 (ITKHI) cell line. Description: soft agar assay (anchorage independent growth). The protocol:
(§1) FIG. 5A-5C. Effects of BI 10N inhibitor on proliferation and motility of melanoma cells. FIG. 5A) Cell motility assays were performed as described in FIG. 4A-4E; however, the inhibitor BI 10N was added to the media to decrease ITK kinase activity in parental cell lines instead of using the shRNA ITK knockdown cell lines. BI 10N was added to the media 24 hours prior to the start of the motility assay and the VivaView camera system was used to image cellular motility of the melanoma cells as described previously. FIG. 5B) The proliferation assays were completed as described in FIG. 4A-4E, substituting the BI 10N compound for the shRNA. Cells were trypsinized and counted using the Invitrogen Countess. Fifty thousand cells were placed into each well of a 6 well plate and BI 10N was added to the indicated concentrations. The cells were counted with the Invitrogen Countess at 3, 5, and 6 or 7 days after plating to assess the proliferation rates of the different cell lines in the presence of BI 10N. FIG. 5C) Both ITKHI (RPMI 8322) and ITKLO (PMWK) melanoma cell lines were grown in the presence of BI 10N (10-200 nM) in soft agar. In 24-well cell culture plates 2,500 cells per well were added to a 1.4% agarose solution. The agarose and cell solution was then poured on top of a solidified base agar. The cells were incubated at 37° C. for three to four weeks to ensure adequate growth before analysis. FIG. 5D) Cell cycle analysis of PMWK, VMM 39, and RPMI 8322 cells that have been treated with increasing concentrations of BI 10N. Following 3 days of BI 10N treatment, the cells were incubated with EdU for 3 hours and were subsequently assessed for 5-ethynyl-2′-deoxyuridine (EdU) incorporation rate and DNA content with FxCycle Violet. Shown in this panel are the percentages of cells in G0/G1 (low DNA and EdU content), S (high EdU and low-to-medium DNA content), and G2/M (Low EdU and high DNA content)
(§2) Soft agar assays were performed employing the RPMI 8322, VMM 39, PMWK, and A375 cell lines. In 24-well cell culture plates (BD Falcon), a 2.0% base agar solution in the appropriate cell line media was poured and allowed to solidify. Tissue culture cells were then trypsinized from their flask, counted using the Countess® Automated Cell Counter, and 2,500 cells per well were added to a 1.4% agarose solution then poured on top of the solidified base agar. Each of the […] layers in the culture plate wells contained BI 10N in the indicated concentrations. The cells were incubated at 37° C. for three to four weeks to ensure adequate growth. 3-(4,5-dimethylthiazol-2-yl)-2,5-diphenyltetrazolium bromide (MTT) was then added in order to perform colony counts using Image J photo processing software.

The next experiment concerns PMWK (ITKLO) cell line. Description: soft agar assay (anchorage independent growth). The procedure:
as §1, §2

For experiment [2], the system named is PMWK (ITKLO) melanoma cell line. The experiment in a line: proliferation assay (cell counts). The following applies: inhibitor as high as 150 nM. The text has this: (§3) FIG. 4A-4E. Effects of ITK knockdown on proliferation and motility of melanoma cells. FIG. 4A) Western of lysates of VMM 39 containing each of the four shRNA constructs using rabbit monoclonal anti ITK (Y401). FIG. 4B) The four shRNA lentiviral constructs were used to transduce three melanoma cell lines, PMWK (ITKLO), VMM 39 (ITKHI), and RPMI 8322 (ITKHI). 50,000 cells were placed into each well of a 6 well plate, which was then counted 3, 5, and 6, or 7 days after plating to assess the proliferation rates of the different cell lines. FIG. 4C) Single Cell Motility assays were performed on three different melanoma cell lines, PMWK, VMM 39, and RPMI 8322. Each melanoma cell line was transduced with the four shRNA lentiviral constructs producing a total of 12 cell lines. 10,000 cells were plated on fibronectin coated glass bottom dishes. Pictures were taken once every 40 minutes for 16 hours. FIG. 4D) Cell cycle analysis of PMWK, VMM 39, and RPMI 8322 cells that have been transduced with various shRNAs. Cells were harvested after 3 hours of incubation with 5-ethynyl-2′-deoxyuridine (EdU). EdU incorporation and DNA content with FxCycle Violet were analyzed using flow cytometry. Illustrated in this panel are the percentages of cells in G0/G1 (low DNA and EdU content), S (high EdU and low-to-medium DNA content), and G2/M (Low EdU and high DNA content). FIG. 4E) Single-cell motility analysis of PMWK, VMM 39, and RPMI 8322 that have been transduced with various shRNAs. At least 50 cells were tracked for each cell line and the average motility rate was determined. […]
(§4) FIG. 5A-5C. […] Cells were trypsinized and counted using the Invitrogen Countess. […] The cells were counted with the Invitrogen Countess at 3, 5, and 6 or 7 days after plating to assess the proliferation rates of the different cell lines in the presence of BI 10N. […] Following 3 days of BI 10N treatment, the cells were incubated with EdU for 3 hours and were subsequently assessed for 5-ethynyl-2′-deoxyuridine (EdU) incorporation rate and DNA content with FxCycle Violet. […]

In experiment [3] the test system is VMM 39 (ITKHI) melanoma cell line. The experiment in a line: proliferation assay (cell counts). Conditions: 50 nM.
Source text: as §3, §4

For experiment [4], the system named is RPMI 8322 (ITKHI) melanoma cell line. The experiment in a line: proliferation assay (cell counts). Conditions: 50 nM.
Source text: as §3, §4

The subject of experiment [5] is SKMEL 131 (ITKLO) melanoma cell line. The experiment in a line: single cell motility assay. The procedure: as §1
(§5) Single cell tracking was performed as described (Williams et al., 2012 Circ Res 111(1):56-65). Briefly melanoma cells were plated on 5 μg/cm2 collagen coated MatTek dishes (MatTek Corp., Ashland, Mass. part #P35G-1.5-10-C) and allowed to attach for 24 hours in the presence of either DMSO (1:1000) or BI 10N in DMSO. Cells were monitored for 16 hours using the Olympus VivaView live cell imaging microscope system. Images were taken at a magnification of 10× and were converted to stacks using Image J software. Single-cells were tracked using Image J manual tracking software and velocities were obtained.

For experiment [6], the system named is SKMEL 153 (ITKHI) melanoma cell line. The experiment in a line: single cell motility assay. Conditions: 10-25 nM. The protocol: as §1, §5
[7] abbreviates: Homo sapiens, 672 h, three to four weeks, read-out: amount needed to decrease the number of colonies formed by 50%.

With `CC(C)C(C)CNCc1ccc2c(c1)[nH]/c(=N\C(=O)c1ccc(C3=CN=NC3)s1)n2CC(C)(C)O` (stereo not shown) [BI 10N], the anchorage-independent growth result (in experiment [1]; in the experiment on PMWK (ITKLO) cell line) was “strongly decreased” throughout. The IC50 was 50 nM in experiment [1] (setting [7]) and 25 nM with PMWK (ITKLO) cell line (setting [7]). Moreover, the “effect on doubling time” value in experiment [2] is on record as “did not increase their doubling time”. Also, the “increase in doubling time” value in experiment [3] and in experiment [4] was “about 50%” throughout. In experiment [5], the “concentration required for smaller changes in migration” value is given as no less than 150 nM. In addition, the effect on migration result in experiment [5] (10-25 nM) is listed as “do not decrease”. Also, in experiment [6], the decrease in migration result is reported as “about 50%”.

The record behind these values is US9649313B2, “Use of ITK inhibitors for the treatment of cancer” (The University of North Carolina at Chapel Hill, priority 2012, dated 2017).
